Measurements as given in paper PMC2685009, “Identification and Characterization of Inhibitors of Human Apurinic/apyrimidinic Endonuclease APE1” (PLoS ONE, 2009).

Assays:
APE1 [1] = target: T1, APE1 (Homo sapiens, UniProt P27695); assay: qHTS fluorogenic AP site incision assay (TAMRA/BHQ-2 red substrate, 1536-well); format: biochemical; details: 50 nM substrate, 0.75 nM APE1; read-out: qHTS IC50 (primary screen, APE1)
T1 construct: made in house
Experimental: Recombinant human APE1 and E. coli EndoIV were purified as previously described. Deoxyoligonucleotides containing a tetrahydrofuran (THF) AP site analog, carboxytetramethyl rhodamine (TAMRA), or Black Hole Quencher-2 (BHQ-2), as appropriate (see Figure 1), were purchased from Biosearch Technologies, Inc., (Novato, CA). To create double-stranded DNA substrates, equal volumes of 200 µM solutions of the respective strands in reaction buffer were mixed and incubated at 95°C for 5 min. The annealing mixture was allowed to cool gradually to room temperature. Annealing and assay experiments were performed in the following buffer: 50 mM Tris pH 7.5, 25 mM NaCl, 2 mM MgCl2, 1 mM DTT, 0.01% Tween-20.
Initial optimizations were carried out in 384-well format at a 40 µL total reaction volume. Briefly, 30 µL of APE1 were pipetted into the plate and incubated at room temperature for 10 min; subsequently, 10 µL of substrate were added to start the reaction. The final assay concentrations of the enzyme and substrate were 0.75 nM and 50 nM, respectively. Kinetic fluorescence data were collected on a ViewLux high-throughput CCD imager (Perkin Elmer, Waltham, MA) equipped with standard FITC (excitation filter 480 nm and emission filter 530 nm) or BODIPY (excitation filter 525 nm and emission filter 598 nm) optics.
Three µl of reagents (buffer in columns 3 and 4 as negative control and APE1 in columns 1, 2, 5–48) were dispensed into a 1536-well plate. Compounds (DMSO solutions) and control (DMSO only) (23 nL) were transferred via Kalypsys pintool equipped with 1536-pin array. The plate was incubated for 15 min at room temperature, and then 1 µL of substrate (50 nM final concentration) was added to start the reaction. Library plates were screened from the lowest to highest concentration.
Screening data were corrected and normalized, and concentration–effect relationships were derived by using in-house developed, publicly available algorithms (http://www.ncgc.nih.gov/pub/openhts/curvefit/). Percent activity was computed after normalization against the uninhibited, or neutral, control (64 wells, entire columns 1 and 2) and the no-enzyme, or 100% inhibited, control (64 wells, entire columns 3 and 4), respectively. A four parameter Hill equation was fitted to the concentration-response data by minimizing the residual error between the modeled and observed responses.

APE1 [2] = target: T1, APE1; assay: Radiotracer (32P, gel-based) incision assay; format: biochemical; details: range of inhibitor concentrations, data not shown; read-out: approximate IC50 in radiotracer assay
[3] = target: unlabeled double-stranded DNA substrate; assay: ThO dye-displacement assay (DNA binding); details: 50 nM DNA, 250 nM ThO
E. coli EndoIV = target: T2, E. coli EndoIV (Escherichia coli, UniProt P0A6C1); assay: E. coli Endonuclease IV (EndoIV) profiling assay; format: biochemical
T2 construct: made in house
Experimental: EndoIV enzyme and substrate (same as that used with APE1) optimization tests were initially performed at a 40 µL final volume in a 384-well format. Reaction concentrations of 2 nM EndoIV and 50 nM DNA substrate were selected for subsequent experiments. For running the assay in 1536-well format, the same protocol as described for APE1 above was followed.

[4] = test system: AP site cleavage activity of HEK 293T whole cell extract; assay: Whole cell extract AP endonuclease activity assay (HEK 293T); format: biochemical, human; details: inhibitor at 100 µM
Experimental: (§1) The radiotracer assay was performed essentially as described. In brief, prioritized candidate inhibitor compounds from the qHTS assay were incubated at various concentrations (100 µM data shown) with APE1 (100 pg) at room temperature for 15 min in 25 mM Tris pH 7.5, 25 mM NaCl, 1 mM MgCl2, 1 mM DTT and 0.01% Tween-20. At that time, 0.5 pmol ^32P-radiolabeled THF-containing 34 mer double-stranded DNA substrate was added. Incision reactions were then carried out immediately at 37°C for 10 min in a final volume of 10 µL. After the addition of an equal volume of stop buffer (0.05% bromophenol blue and xylene cynol, 20 mM EDTA, 95% formamide), the radiolabeled substrate and product were separated on a standard polyacrylamide denaturing gel and quantified by phosphorimager analysis.
(§2) HEK 293T or HeLa cells – maintained in DMEM with 10% fetal bovine serum and 1% Penicillin-Streptomycin – were harvested, washed with 1× PBS, re-suspended in cold 222 mM KCl, incubated on ice for 30 min, and clarified by centrifugation at 12,000×g for 15 min at 4°C [23]. The supernatant (whole cell extract) was retained, the protein concentration determined using the Bio-Rad Bradford reagent, and aliquots were stored at −80°C. AP endonuclease activity assays were performed with or without candidate inhibitor compounds as described above, except 60 ng HEK 293T or 80 ng of HeLa whole cell extract was used.

[5] = test system: AP site cleavage activity of HeLa whole cell extract; assay: Whole cell extract AP endonuclease activity assay (HeLa); format: biochemical, human; details: inhibitor at 100 µM
Experimental: as §1, §2

HeLa cells = assay: AP site measurement in chromosomal DNA; format: cell-based, human
Experimental: HeLa cells were treated as above, except only at 5 µM inhibitor where indicated. Following exposure, chromosomal DNA was isolated and steady-state AP site levels were measured using the DNA Damage Quantification Kit from Dojindo Molecular Technologies, Inc. (Gaithersburg, MD) as previously described.

[6] = set-up: method as in PMID 7019686; details: cited from earlier work

T1 sequence (P27695 whole entry): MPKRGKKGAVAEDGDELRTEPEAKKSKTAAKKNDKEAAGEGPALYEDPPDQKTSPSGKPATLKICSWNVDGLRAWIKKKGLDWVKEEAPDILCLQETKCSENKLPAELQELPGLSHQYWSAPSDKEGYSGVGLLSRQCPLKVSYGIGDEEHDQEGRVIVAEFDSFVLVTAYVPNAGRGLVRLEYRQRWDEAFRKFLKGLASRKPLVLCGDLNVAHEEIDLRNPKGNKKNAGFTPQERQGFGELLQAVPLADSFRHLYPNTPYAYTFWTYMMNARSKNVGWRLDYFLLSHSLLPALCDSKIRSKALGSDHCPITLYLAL

O=c1c(O)c(-c2cc(O)c(O)c(O)c2)oc2cc(O)cc(O)c12 [myricetin]
IC50 (APE1 [1]): 320 nM | IC50 (APE1 [2]): < 500 nM | IC50 [3]: 3500 nM | activity against EndoIV compared with APE1 (in words) (E. coli EndoIV): completely inactive or weakly active | IC50 (E. coli EndoIV; 2 nM EndoIV, 50 nM substrate, read-out: Endo IV IC50 (E. coli EndoIV profiling)): > 57000 nM | inhibition of total AP site cleavage activity [4]: ≥ 80% | inhibition of total AP site cleavage activity [5]: ≥ 80% | AP site damage, inhibitor alone (HeLa cells; 5 µM inhibitor alone, relative to control cells): increased AP site damage relative to the control cells | AP site damage, inhibitor plus MMS (HeLa cells; 5 µM inhibitor plus MMS): potentiated the genotoxic potential of MMS | mutagenesis in the Ames Test [6]: promote mutagenesis
